Reference: article PMC3177992 (Chemical research in toxicology, 2011)

Key:
Assay type in all cases: in vitro ADME
UGT1A9 = molecular target: T1, UGT1A9 (Homo sapiens, UniProt O60656); experiment: Glucuronidation assay, UGT1A9-over-expressing HEK293 cell homogenate
T1 sequence (O60656 26-530): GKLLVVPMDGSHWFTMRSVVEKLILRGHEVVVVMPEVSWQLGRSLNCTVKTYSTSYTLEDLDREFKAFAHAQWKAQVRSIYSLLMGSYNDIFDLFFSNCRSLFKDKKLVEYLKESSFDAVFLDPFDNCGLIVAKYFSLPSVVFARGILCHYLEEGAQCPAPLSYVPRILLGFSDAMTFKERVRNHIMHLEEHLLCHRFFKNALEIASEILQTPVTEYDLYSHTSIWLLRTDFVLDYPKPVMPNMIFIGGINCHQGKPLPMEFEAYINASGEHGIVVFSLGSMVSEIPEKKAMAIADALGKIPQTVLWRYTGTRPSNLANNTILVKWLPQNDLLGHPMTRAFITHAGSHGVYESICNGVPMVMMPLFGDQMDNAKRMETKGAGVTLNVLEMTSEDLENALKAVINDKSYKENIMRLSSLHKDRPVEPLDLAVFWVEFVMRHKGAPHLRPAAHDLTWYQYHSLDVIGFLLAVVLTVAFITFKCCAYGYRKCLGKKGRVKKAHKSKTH

UGT2B7 = molecular target: T2, UGT2B7 (Homo sapiens, UniProt P16662); experiment: Glucuronidation assay, UGT2B7-over-expressing HEK293 cell homogenate
T2 sequence (P16662 24-529): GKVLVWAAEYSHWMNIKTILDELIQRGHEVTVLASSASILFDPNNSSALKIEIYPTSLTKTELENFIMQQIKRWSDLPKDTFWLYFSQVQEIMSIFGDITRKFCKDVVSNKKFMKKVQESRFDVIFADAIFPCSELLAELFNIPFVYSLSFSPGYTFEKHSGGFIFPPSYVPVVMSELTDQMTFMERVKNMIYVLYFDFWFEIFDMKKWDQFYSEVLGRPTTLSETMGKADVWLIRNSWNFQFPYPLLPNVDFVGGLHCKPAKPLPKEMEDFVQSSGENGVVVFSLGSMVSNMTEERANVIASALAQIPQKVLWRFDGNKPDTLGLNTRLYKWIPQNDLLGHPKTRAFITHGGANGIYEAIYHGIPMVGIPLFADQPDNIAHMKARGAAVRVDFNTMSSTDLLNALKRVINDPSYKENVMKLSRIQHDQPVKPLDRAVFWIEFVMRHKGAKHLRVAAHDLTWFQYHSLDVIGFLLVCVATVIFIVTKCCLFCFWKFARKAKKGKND

UGT1A8 = molecular target: T3, UGT1A8 (Homo sapiens, UniProt Q9HAW9); experiment: Glucuronidation assay, UGT1A8-over-expressing HEK293 cell homogenate
T3 sequence (Q9HAW9 26-530): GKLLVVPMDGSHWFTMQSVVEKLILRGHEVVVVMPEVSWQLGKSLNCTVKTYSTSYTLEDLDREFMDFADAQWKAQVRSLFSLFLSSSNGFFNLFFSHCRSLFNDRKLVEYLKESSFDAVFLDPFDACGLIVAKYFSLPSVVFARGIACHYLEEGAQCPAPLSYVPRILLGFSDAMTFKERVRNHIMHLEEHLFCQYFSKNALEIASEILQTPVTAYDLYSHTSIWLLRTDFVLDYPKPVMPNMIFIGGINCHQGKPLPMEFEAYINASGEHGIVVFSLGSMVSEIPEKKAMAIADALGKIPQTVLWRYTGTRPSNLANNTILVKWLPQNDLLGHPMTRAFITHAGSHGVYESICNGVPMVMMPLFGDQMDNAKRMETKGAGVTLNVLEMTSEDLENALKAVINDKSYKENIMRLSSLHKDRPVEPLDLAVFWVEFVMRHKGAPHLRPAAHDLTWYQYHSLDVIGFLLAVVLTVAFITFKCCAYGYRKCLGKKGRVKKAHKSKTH

UGT1A7 = molecular target: T4, UGT1A7 (Homo sapiens, UniProt Q9HAW7); experiment: Glucuronidation assay, UGT1A7-over-expressing HEK293 cell homogenate
T4 sequence (Q9HAW7 26-530): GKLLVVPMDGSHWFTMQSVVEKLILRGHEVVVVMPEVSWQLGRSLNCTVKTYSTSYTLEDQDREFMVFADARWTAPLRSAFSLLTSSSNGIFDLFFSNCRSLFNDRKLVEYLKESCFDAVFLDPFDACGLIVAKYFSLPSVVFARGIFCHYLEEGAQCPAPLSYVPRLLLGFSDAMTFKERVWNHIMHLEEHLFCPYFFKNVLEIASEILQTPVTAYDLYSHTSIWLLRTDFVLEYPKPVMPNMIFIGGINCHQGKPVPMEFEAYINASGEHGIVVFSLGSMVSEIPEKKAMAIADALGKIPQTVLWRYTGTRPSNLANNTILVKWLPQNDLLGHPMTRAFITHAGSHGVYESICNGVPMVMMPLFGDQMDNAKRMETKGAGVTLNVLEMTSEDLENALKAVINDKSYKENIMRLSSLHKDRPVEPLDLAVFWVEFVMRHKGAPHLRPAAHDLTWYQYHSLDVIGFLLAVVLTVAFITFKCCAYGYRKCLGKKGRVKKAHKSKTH

UGT1A1 = molecular target: T5, UGT1A1 (Homo sapiens, UniProt P22309); experiment: Glucuronidation assay, UGT1A1-over-expressing HEK293 cell homogenate
T5 sequence (P22309 26-533): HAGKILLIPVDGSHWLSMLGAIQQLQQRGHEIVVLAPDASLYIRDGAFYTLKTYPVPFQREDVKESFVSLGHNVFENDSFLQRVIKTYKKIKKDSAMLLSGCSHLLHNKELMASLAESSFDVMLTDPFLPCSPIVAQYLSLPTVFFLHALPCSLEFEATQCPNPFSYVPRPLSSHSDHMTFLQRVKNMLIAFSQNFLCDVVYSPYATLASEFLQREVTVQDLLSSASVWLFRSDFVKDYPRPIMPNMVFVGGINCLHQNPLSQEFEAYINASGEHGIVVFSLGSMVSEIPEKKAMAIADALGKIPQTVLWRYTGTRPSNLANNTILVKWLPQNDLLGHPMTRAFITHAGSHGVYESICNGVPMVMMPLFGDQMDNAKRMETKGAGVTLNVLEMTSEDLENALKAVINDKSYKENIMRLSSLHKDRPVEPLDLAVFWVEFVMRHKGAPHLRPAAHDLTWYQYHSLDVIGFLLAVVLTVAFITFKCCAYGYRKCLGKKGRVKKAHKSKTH

UGT1A10 = molecular target: T6, UGT1A10 (Homo sapiens, UniProt Q9HAW8); experiment: Glucuronidation assay, UGT1A10-over-expressing HEK293 cell homogenate
T6 sequence (Q9HAW8 26-530): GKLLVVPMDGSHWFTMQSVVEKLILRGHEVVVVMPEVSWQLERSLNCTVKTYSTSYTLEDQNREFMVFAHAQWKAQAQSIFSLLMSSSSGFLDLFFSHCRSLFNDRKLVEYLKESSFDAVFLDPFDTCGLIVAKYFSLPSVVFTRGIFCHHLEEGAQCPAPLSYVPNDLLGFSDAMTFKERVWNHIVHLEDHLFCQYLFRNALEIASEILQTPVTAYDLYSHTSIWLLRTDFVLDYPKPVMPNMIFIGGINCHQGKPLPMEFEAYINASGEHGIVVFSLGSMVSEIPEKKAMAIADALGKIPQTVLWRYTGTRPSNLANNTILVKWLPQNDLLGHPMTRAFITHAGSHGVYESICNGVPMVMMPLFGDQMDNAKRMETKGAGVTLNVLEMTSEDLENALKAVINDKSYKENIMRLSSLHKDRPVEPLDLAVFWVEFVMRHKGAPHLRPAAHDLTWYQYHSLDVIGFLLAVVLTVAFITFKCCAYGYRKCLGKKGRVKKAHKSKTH

[1] = glucuronide formation from the respective diol enantiomer

O=C(O)[C@H]1O[C@@H](O[C@H]2c3cc4ccc5cccc6c7ccccc7c(c3C=C[C@@H]2O)c4c56)[C@H](O)[C@@H](O)[C@@H]1O (relative stereo) [(+)-DB[a,l]P-11-Gluc, DB[a,l]P-(+)-trans-11-Gluc,12-ol]
Km (UGT1A9): 0.17 ± 0.01 µM | ratio of (+)-DB[a,l]P-11-Gluc : (−)-DB[a,l]P-11-Gluc formation (UGT1A9): 30 | fold higher activity (kcat/KM) of UGT1A9 than UGT1A1 (UGT1A9; comparing kcat/KM values): approximately 489 fold | kcat/Km (UGT1A9; [1]): 49670 ± 2430 M⁻¹ s⁻¹ | Km (UGT2B7): 175 ± 25 µM | kcat/Km (UGT2B7; [1]): 6.33 ± 0.17 M⁻¹ s⁻¹ | Km (UGT1A8): 194 ± 39 µM | ratio of (+)-DB[a,l]P-11-Gluc : (−)-DB[a,l]P-11-Gluc formation (UGT1A8): 48 | kcat/Km (UGT1A8; [1]): 13.3 ± 2 M⁻¹ s⁻¹ | Km (UGT1A7): 43 ± 7 µM | ratio of (+)-DB[a,l]P-11-Gluc : (−)-DB[a,l]P-11-Gluc formation (UGT1A7): 67 | kcat/Km (UGT1A7; [1]): 3.83 ± 1.83 M⁻¹ s⁻¹ | Km (UGT1A1): 76 ± 21 µM | ratio of (+)-DB[a,l]P-11-Gluc : (+)-DB[a,l]P-12-Gluc : (−)-DB[a,l]P-11-Gluc formation (UGT1A1): 52 | kcat/Km (UGT1A1; [1]): 102 ± 25 M⁻¹ s⁻¹ | Km (UGT1A10): 33 ± 9.8 µM | ratio of (+)-DB[a,l]P-11-Gluc : (+)-DB[a,l]P-12-Gluc : (−)-DB[a,l]P-11-Gluc formation (UGT1A10): 19 | fold higher activity (kcat/KM) of UGT1A10 compared to UGTs 1A7 and 1A8 (UGT1A10; comparing kcat/KM values): 12–72 fold | kcat/Km (UGT1A10; [1]): 158 ± 33.3 M⁻¹ s⁻¹
